From patent US9796720B2, “Imidazole-derived modulators of the glucocorticoid receptor” (BRISTOL-MYERS SQUIBB COMPANY, priority 2013, dated 2017) come the findings set out here.

Like-named read-outs stand apart in the source and are kept apart here.

Experiment [1] deals with AP-1. Briefly: Cellular transrepressional assay (AP-1 luciferase reporter in A549 cells, PMA-activated). The conditions noted are these: for EC50: read-out: AP-1 (EC50, nM) (measured in cellular transrepression assay); for Emax: read-out: AP-1 Max % inhibition (measured in cellular transrepression assay). The class given is cell-based. Here is the method:
Cellular Transrepressional Assay
To measure the ability of test molecules to inhibit AP-1 induced transcriptional activity we utilized an A549 cell which was stably transfected with a plasmid containing 7×AP-1 DNA binding sites (pAP-1-Luc plasmid, Stratagene Co. La Jolla, Calif.) followed by the gene for luciferase. Cells were activated with 10 ng/ml of phorbol myristic acid (PMA) plus or minus test molecules for 7 hours. After 7 hours a luciferase reagent was added to measure luciferase enzymatic activity in the cell. After a 10 minute incubation of luciferase reagent with cells, luminescence was measured in a TOPCOUNT® luminescence counter. Repression of AP-1 activity was calculated as the percentage decrease in the signal induced by PMA alone. Test molecules were analyzed in the concentration range from 0.1 nM to 40 μM. EC50s were determined by using standard curve fitting methods such as Excel fit (Microsoft Co.). An EC50 is the test molecule concentration at which there is a 50% repression of the maximal inhibition of transcription, i.e., a 50% reduction of AP-1 activity.

The target in experiment [2] is human full-length glucocorticoid receptor (Homo sapiens (Human), UniProt P04150). Put plainly: Glucocorticoid Receptor Binding Assay (II), fluorescence polarization competitor assay. The conditions noted are these: recombinant human full-length GR cell lysate, Fluormone GS1; read-out: GR (Ki, nM) (measured in GR binding Assay II). The protocol: Glucocorticoid Receptor Binding Assay (II)
In order to measure the binding of compounds on the glucocorticoid receptor a commercially available kit was used (Glucocorticoid receptor competitor assay kit, PanVera Co., Madison, Wis., P2816). Briefly, a cell lysate containing recombinantly expressed human full-length glucocorticoid receptor was mixed with a fluorescently labeled glucocorticoid (1 nM Fluormone GS1) in the presence or absence of test compound. After one hour at room temperature, the fluorescence polarization (FP) of the samples were measured.

Where [3] appears, read: A549 cells, 7xAP-1 luciferase, PMA 10 ng/ml, 7 hours.

Chain of human full-length glucocorticoid receptor (P04150 whole entry): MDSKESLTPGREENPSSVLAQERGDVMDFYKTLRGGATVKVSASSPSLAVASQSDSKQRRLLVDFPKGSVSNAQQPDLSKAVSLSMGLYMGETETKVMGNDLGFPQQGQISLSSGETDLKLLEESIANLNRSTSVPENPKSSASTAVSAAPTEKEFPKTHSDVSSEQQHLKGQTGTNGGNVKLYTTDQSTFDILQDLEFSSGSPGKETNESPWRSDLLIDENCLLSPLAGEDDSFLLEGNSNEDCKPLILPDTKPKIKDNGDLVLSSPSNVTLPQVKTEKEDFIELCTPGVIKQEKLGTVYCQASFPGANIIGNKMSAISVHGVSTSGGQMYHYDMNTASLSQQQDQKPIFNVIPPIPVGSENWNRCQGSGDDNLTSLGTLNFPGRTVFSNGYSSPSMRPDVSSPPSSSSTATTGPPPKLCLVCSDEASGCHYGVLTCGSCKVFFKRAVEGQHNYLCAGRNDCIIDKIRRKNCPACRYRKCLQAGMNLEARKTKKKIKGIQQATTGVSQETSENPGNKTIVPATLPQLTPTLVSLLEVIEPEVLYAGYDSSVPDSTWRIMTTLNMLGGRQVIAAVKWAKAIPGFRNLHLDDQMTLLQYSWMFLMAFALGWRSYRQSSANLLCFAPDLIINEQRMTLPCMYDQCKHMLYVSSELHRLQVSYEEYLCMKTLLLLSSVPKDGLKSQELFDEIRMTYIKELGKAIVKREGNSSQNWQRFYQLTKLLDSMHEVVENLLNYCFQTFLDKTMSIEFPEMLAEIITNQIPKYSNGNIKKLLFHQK

On to `CC(C)(c1nc2nccnc2[nH]1)[C@@H]1c2ccc(-c3ccc(N)cc3)nc2Oc2c(F)cccc21` [Example 22, (S)-4-(5-(2-(1H-Imidazo[4,5-b]pyrazin-2-yl)propan-2-yl)-9-fluoro-5H-chromeno[2,3-b]pyridin-2-yl)aniline], for which, in experiment [1] (setting [3]), the EC50 is 19.9 nM and the Emax amounted to 51%. For the same compound, in experiment [2], the inhibitory constant (Ki) was 2.91 nM.
In the case of `CC(C)(c1nc2nccnc2[nH]1)[C@@H]1c2ccc(-c3ccc(NS(C)(=O)=O)cc3)nc2Oc2c(F)cccc21` [Example 23, (S)-N-(4-(5-(2-(1H-Imidazo[4,5-b]pyrazin-2-yl)propan-2-yl)-9-fluoro-5H-chromeno[2,3-b]pyridin-2-yl)phenyl)methanesulfonamide], in experiment [1] (7 h), the EC50 came to 22.8 nM and the Emax amounted to 58.2%. In addition, the Ki in experiment [2] came to 1.76 nM.
Turning to `CC(C)(c1nc2nccnc2[nH]1)[C@@H]1c2ccc(-c3ccc(N4CCCC4=O)cc3)nc2Oc2c(F)cccc21` [Example 24, (S)-1-(4-(5-(2-(1H-Imidazo[4,5-b]pyrazin-2-yl)propan-2-yl)-9-fluoro-5H-chromeno[2,3-b]pyridin-2-yl)phenyl)pyrrolidin-2-one], in experiment [1] (setting [3]), the EC50 was determined as 37.3 nM and the Emax stood at 69.4%. In addition, the Ki in experiment [2] came out at 1.9 nM.
Consider `CC(C)Oc1ccc(-c2ccc3c(n2)Oc2c(F)cccc2[C@@H]3C(C)(C)c2nc3nccnc3[nH]2)cn1` [Example 25, (S)-5-(2-(1H-Imidazo[4,5-b]pyrazin-2-yl)propan-2-yl)-9-fluoro-2-(6-isopropoxypyridin-3-yl)-5H-chromeno[2,3-b]pyridine], for which, in experiment [1] (setting [3]), the EC50 was found to be 31.7 nM and the Emax stood at 57.8%. Moreover, the Ki in experiment [2] came out at 2.78 nM.
Regarding `COC(=O)c1ccc(-c2ccc3c(n2)Oc2c(F)cccc2[C@@H]3C(C)(C)c2nc3nccnc3[nH]2)cn1` [Example 26, (S)-Methyl 5-(5-(2-(1H-imidazo[4,5-b]pyrazin-2-yl)propan-2-yl)-9-fluoro-5H-chromeno[2,3-b]pyridin-2-yl)picolinate], in experiment [1] (setting [3]), the EC50 came out at 5000 nM and the Emax worked out at 14.3%. The inhibition constant (Ki) in experiment [2] was 144 nM.
For `CC(C)(O)c1ccc(-c2ccc3c(n2)Oc2c(F)cccc2[C@@H]3C(C)(C)c2nc3nccnc3[nH]2)cn1` [Example 27, (S)-2-(5-(5-(2-(1H-Imidazo[4,5-b]pyrazin-2-yl)propan-2-yl)-9-fluoro-5H-chromeno[2,3-b]pyridin-2-yl)pyridin-2-yl)propan-2-ol], in that order: 28.4 nM, 53.6% and 9.3 nM.
For `CC(C)(c1nc2nccnc2[nH]1)[C@@H]1c2ccc(-c3ccc(F)nc3)nc2Oc2c(F)cccc21` [Example 28, (S)-5-(2-(1H-Imidazo[4,5-b]pyrazin-2-yl)propan-2-yl)-9-fluoro-2-(6-fluoropyridin-3-yl)-5H-chromeno[2,3-b]pyridine], in experiment [1] (setting [3]), the EC50 came out at 5000 nM and the Emax worked out at 16.4%. For the same compound, the Ki in experiment [2] was found to be 28.6 nM.
As to `CN(C)c1ccc(-c2ccc3c(n2)Oc2c(F)cccc2[C@@H]3C(C)(C)c2nc3nccnc3[nH]2)cn1` [Example 29, (S)-5-(5-(2-(1H-Imidazo[4,5-b]pyrazin-2-yl)propan-2-yl)-9-fluoro-5H-chromeno[2,3-b]pyridin-2-yl)-N,N-dimethylpyridin-2-amine], in experiment [1] (setting [3]), the EC50 is 129 nM and the Emax turned out to be 44.9%. Moreover, the Ki in experiment [2] was found to be 5.43 nM.
In the case of `CC(C)(c1nc2nccnc2[nH]1)[C@@H]1c2ccc(-c3ccc(C(=O)N4CCOCC4)nc3)nc2Oc2c(F)cccc21` [Example 30, (S)-(5-(5-(2-(1H-Imidazo[4,5-b]pyrazin-2-yl)propan-2-yl)-9-fluoro-5H-chromeno[2,3-b]pyridin-2-yl)pyridin-2-yl)(morpholino)methanone], in experiment [1] (setting [3]), the EC50 stood at 179 nM and the Emax is 57%. In addition, the Ki in experiment [2] amounted to 30.3 nM.
For `Cn1nnnc1-c1ccc(-c2ccc3c(n2)Oc2c(F)cccc2[C@@H]3C(C)(C)c2nc3nccnc3[nH]2)cc1` [Example 31, (S)-5-(2-(1H-Imidazo[4,5-b]pyrazin-2-yl)propan-2-yl)-9-fluoro-2-(4-(1-methyl-1H-tetrazol-5-yl)phenyl)-5H-chromeno[2,3-b]pyridine], in that order: 15 nM, 48.6% and 1.94 nM.
